Reference: patent publication US5830851A (Affymax Technologies N.V., priority 1995, dated 1998)
“Also recorded” adds a separate entry of the source. Residues, ends and D or L forms follow the SMILES beside them. No end group written: not given here.

Key:
[1] = target: T1, human EPO-R (FDCP-1/hEPO-R cells) (Homo sapiens, UniProt P19235); assay: FDCP-1/hEPO-R cell proliferation bioassay; type: cell-based
T1 construct: expressed in transfected cells; host or cells: FDCP-1 (murine hematopoietic progenitor cell line)
T1 sequence (P19235 25-508): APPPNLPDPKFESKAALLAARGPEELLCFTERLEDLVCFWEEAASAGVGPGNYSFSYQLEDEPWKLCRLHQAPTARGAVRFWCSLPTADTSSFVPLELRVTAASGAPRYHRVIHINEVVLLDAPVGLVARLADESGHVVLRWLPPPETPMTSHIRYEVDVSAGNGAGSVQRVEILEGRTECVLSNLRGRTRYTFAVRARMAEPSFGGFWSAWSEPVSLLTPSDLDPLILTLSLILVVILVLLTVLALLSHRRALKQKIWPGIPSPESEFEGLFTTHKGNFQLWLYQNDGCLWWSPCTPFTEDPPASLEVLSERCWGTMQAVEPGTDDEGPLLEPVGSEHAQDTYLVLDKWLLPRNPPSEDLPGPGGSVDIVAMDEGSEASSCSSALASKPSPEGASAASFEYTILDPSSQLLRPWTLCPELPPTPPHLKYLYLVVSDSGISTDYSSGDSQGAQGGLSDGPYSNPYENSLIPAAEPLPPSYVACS
Protocol: One assay utilized FDCP-1, a growth factor dependent murine multi-potential primitive hematopoietic progenitor cell line (see, e.g., Dexter et al. (1980) J. Exp. Med. 152:1036-1047), as the parental cell line. This cell line can proliferate, but not differentiate, when supplemented with WEHI3-conditioned media (a medium that contains IL-3, ATCC number T1B68).
In brief, the cells are grown to half stationary density in the presence of the necessary growth factors. The cells are then washed in PBS and starved for 16-24 hours in whole media without the growth factors. After determining the viability of the cells, stock solutions (in whole media without the growth factors) are made to give about 10^5 cells per 50 microliters. […] Cells (50 microliters) are added to each well and the cells are incubated 24-48 hours, at which point the negative controls should die or be quiescent. Cell proliferation is then measured by techniques known in the art, such as an MTT assay which correlates with ^3 H-thymidine incorporation as an indication of cell proliferation (see, Mosmann (1983) J. Immunol. Methods 65:55).

[2] = target: T2, truncated human erythropoietin receptor (Homo sapiens, UniProt P19235); assay: cell-based
T2 sequence (P19235 25-468 limits assumed): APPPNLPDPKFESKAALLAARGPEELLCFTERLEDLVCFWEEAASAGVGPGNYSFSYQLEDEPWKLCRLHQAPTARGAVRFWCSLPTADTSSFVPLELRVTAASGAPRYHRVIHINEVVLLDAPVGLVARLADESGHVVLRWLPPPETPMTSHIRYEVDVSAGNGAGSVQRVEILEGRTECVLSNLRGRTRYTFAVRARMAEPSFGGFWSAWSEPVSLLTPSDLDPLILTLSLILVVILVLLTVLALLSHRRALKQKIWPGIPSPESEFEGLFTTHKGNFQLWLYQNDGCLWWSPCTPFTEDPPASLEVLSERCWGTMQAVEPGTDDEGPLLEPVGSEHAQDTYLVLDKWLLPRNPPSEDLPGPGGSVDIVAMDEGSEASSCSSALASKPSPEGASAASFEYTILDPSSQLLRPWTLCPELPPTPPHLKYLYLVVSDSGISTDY
Protocol: Cells are counted and resuspended at a concentration of 800,000 cells/ml. Approximately forty thousand cells (50μ) are added to each well of a 96 well microtiter plate. Peptide is added to each well in triplicate. A standard dose response determination is run with each series of peptides. After a forty-two hr incubation (≈2 doubling), each well is pulsed with 1 μCi/well Thymidine. Cells are incubated an additional six hr at which time cells are harvested and counted to assess thymidine incorporation as an indicator of cell proliferation.

[3] = target: T3, extracellular domain of the human erythropoietin receptor (EPO binding protein, EBP) (Homo sapiens, UniProt P19235); assay: Immobilized EBP based [125I]EPO competition binding assay; conditions: IC50 relative to RWJ61233 (IC50 of 5 μM)
T3 construct: made in house; host or cells: E. coli
T3 sequence (P19235 25-250 limits assumed): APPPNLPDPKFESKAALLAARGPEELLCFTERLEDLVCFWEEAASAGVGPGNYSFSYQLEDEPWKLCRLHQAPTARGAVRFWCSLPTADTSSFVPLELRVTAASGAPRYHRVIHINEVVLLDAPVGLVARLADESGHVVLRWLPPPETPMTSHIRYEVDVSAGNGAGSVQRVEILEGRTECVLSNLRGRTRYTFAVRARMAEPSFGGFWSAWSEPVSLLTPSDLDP
Protocol: The iodoacetyl activation chemistry of Sufolink beads (Pierce Chemical Co, Rockford, Ill.) is specific for free thiols and assures that the linkage is not easily reversible. EBP-Sulfolink beads were made as follows: SulfoLink gel suspension (10 ml) was mixed with coupling buffer (40 ml: 50 mM Tris, pH 8.3, 5 mM EDTA) and the gel was allowed to settle. The supernatant was removed and the EBP (0.3-1 mg/ml in coupling buffer) to be bound was added directly to the washed beads. The mixture was rocked gently for 30 minutes at room temperature, and the beads were allowed to settle for 1 hour at room temperature. […] The amount of EBP which was covalently bound to the beads was determined by comparing the OD280 of the original EBP solution to the total OD280 recovered in the reaction supernatant and the two 20 ml washes.
Binding assays were initiated by the addition of EBP beads (50 μl) to individual reaction tubes. […] The tubes were incubated for five hours (a time period experimentally determined as adequate for the establishment of equilibrium) at room temperature with gentle rocking. […]
Competitive binding analysis assays of candidate peptides were performed as outlined below. […] The columns containing the washed beads were placed in 12×75 mm glass tubes and bound radioactivity levels were determined using a gamma counter.

## CC(C)C[C@@H]1NC(=O)[C@@H]2CCCN2C(=O)CNC(=O)[C@H](Cc2ccccc2)NC(=O)[C@H](Cc2c[nH]cn2)NC(=O)[C@@H](NC(=O)[C@H](CO)NC(=O)[C@H](Cc2ccc(O)cc2)NC(=O)[C@@H](NC(=O)CNC(=O)CN)[C@@H](C)O)CSSC[C@@H](C(=O)N[C@@H](CCCCN)C(=O)N2CCC[C@H]2C(=O)N[C@@H](CCC(N)=O)C(=O)NCC(=O)NCC(=O)N[C@@H](CO)C(=O)N[C@@H](CO)C(=O)N[C@@H](CCCCNC(=O)CCCCCNC(=O)CCCC[C@@H]2SC[C@@H]3NC(=O)N[C@@H]32)C(N)=O)NC(=O)[C@H](C(C)C)NC(=O)[C@H](Cc2c[nH]c3ccccc23)NC(=O)[C@H]([C@@H](C)O)NC1=O [AF11505] (HELM PEPTIDE1{G.G.T.Y.S.C.H.F.G.P.L.T.W.V.C.K.P.Q.G.G.S.S.K.[am]}|PEPTIDE2{[O=C1N[C@H]2[C@H](CS[C@H]2CCCCC(=O)[*:2])N1].[O=C(CCCCCN[*:1])[*:2]]}$PEPTIDE1,PEPTIDE2,23:R3-2:R2|PEPTIDE1,PEPTIDE1,6:R3-15:R3$$$V2.0; N-terminus and C-terminus assumed; bridges inferred)
[1]; free peptides, read-out: EPO-ED50
  EC50: ~1000 nM

## CC(C)C[C@@H]1NC(=O)[C@@H]2CCCN2C(=O)CNC(=O)[C@H](Cc2ccccc2)NC(=O)[C@H](Cc2c[nH]cn2)NC(=O)[C@@H](NC(=O)[C@H](CO)NC(=O)[C@H](Cc2ccc([N+](=O)[O-])cc2)NC(=O)[C@@H](NC(=O)CNC(=O)CN)[C@@H](C)O)CSSC[C@@H](C(=O)N[C@@H](CCCCN)C(=O)N2CCC[C@H]2C(=O)N[C@@H](CCC(N)=O)C(=O)NCC(=O)NCC(N)=O)NC(=O)[C@H](C(C)C)NC(=O)[C@H](Cc2c[nH]c3ccccc23)NC(=O)[C@H]([C@@H](C)O)NC1=O [RWJ 61894, GGTXSCHFGPLTWVCKPQGG] (HELM PEPTIDE1{G.G.T.[O=C([C@H](Cc1ccc([N+](=O)[O-])cc1)N[*:1])[*:2]].S.C.H.F.G.P.L.T.W.V.C.K.P.Q.G.G.[am]}$PEPTIDE1,PEPTIDE1,6:R3-15:R3$$$V2.0)
[2]
  EC50: 800 nM

## CC(C)C[C@@H]1NC(=O)[C@@H]2CCCN2C(=O)CNC(=O)[C@H](Cc2ccccc2)NC(=O)[C@H](Cc2c[nH]cn2)NC(=O)[C@@H](NC(=O)[C@H](CO)NC(=O)[C@H](Cc2ccc(N)cc2)NC(=O)[C@@H](NC(=O)CNC(=O)CN)[C@@H](C)O)CSSC[C@@H](C(=O)N[C@@H](CCCCN)C(=O)N2CCC[C@H]2C(=O)N[C@@H](CCC(N)=O)C(=O)NCC(=O)NCC(N)=O)NC(=O)[C@H](C(C)C)NC(=O)[C@H](Cc2c[nH]c3ccccc23)NC(=O)[C@H]([C@@H](C)O)NC1=O [RWJ 62019, GGTXSCHFGPLTWVCKPQGG] (HELM PEPTIDE1{G.G.T.[Nc1ccc(C[C@H](N[*:1])C(=O)[*:2])cc1].S.C.H.F.G.P.L.T.W.V.C.K.P.Q.G.G.[am]}$PEPTIDE1,PEPTIDE1,6:R3-15:R3$$$V2.0)
[2]
  EC50: 3000 nM

## CC(=O)NCC(=O)NCC(=O)N[C@H](C(=O)N[C@@H](Cc1ccc(O)cc1)C(=O)N[C@@H](CO)C(=O)N[C@H]1CSSC[C@@H](C(=O)N[C@@H](CCCCN)C(=O)N2CCC[C@H]2C(=O)N[C@@H](CCC(N)=O)C(=O)NCC(=O)NCC(N)=O)NC(=O)[C@H](C(C)C)NC(=O)[C@H](Cc2c[nH]c3ccccc23)NC(=O)[C@H]([C@@H](C)O)NC(=O)[C@H](CC(C)C)NC(=O)[C@@H]2CCCN2C(=O)CNC(=O)[C@H](Cc2ccccc2)NC(=O)[C@H](Cc2c[nH]cn2)NC1=O)[C@@H](C)O [RWJ 62146] (HELM PEPTIDE1{[ac].G.G.T.Y.S.C.H.F.G.P.L.T.W.V.C.K.P.Q.G.G.[am]}$PEPTIDE1,PEPTIDE1,7:R3-16:R3$$$V2.0)
[3]
  Relative Binding: 4

## GGTYSCHFGPLTWVCKPQGGSSK+G anti-B: biotinylated peptide preincubated with purified goat anti-biotin IgG at a 2:1 molar ratio (cysteine pairing not given here; also: biotinylated, site not given here, preincubated with goat anti-biotin IgG at 2:1 molar ratio)
[1]
  reduction in EPO-ED50 / increase in potency over the free peptide: one log reduction

## RWJ 61721: sequence analog peptide shown only as a drawing in Table 19 (GGTYSEHFGPLTWVKKPQGG)
[3]
  Relative Binding: > 100

## Streptavidin: streptavidin alone, control for the complex [reference compound]
[1]; tested without peptide
  stimulatory effect alone: some small stimulatory effect at the highest concentrations; also recorded: marginal activity at high concentrations
